In patent publication US9034846B2, “Use of cyclodextrin for treatment and prevention of bronchial inflammatory diseases” (UNIVERSITE DE LIEGE, priority 2004, dated 2015):
Blank lines part the entries; values can stand above or below the compound they belong to.

Assays:
OVA exposed mice [1] = assay: Peribronchial inflammation score by histology, OVA mouse model; format: in vivo
Experimental: (§1) In order to study modulation of airway inflammation, males BALB/c mice of 6 to 8 weeks old were sensitized by intraperitoneal injection of 10 μg ovalbumin (OVA) (Sigma Aldrich, Schnelldorf, Germany) emulsified in aluminum hydroxyde (AlumInject; Perbio, Erembodegem, Belgium) on days 1 and 8. Mice were subsequently exposed to allergens by daily inhalation of an aerosol of OVA 1%, for 30 minutes, generated by ultrasonic nebulizer (Devilbiss 2000), from day 21 to 27. […] Mice were sacrificed performed on day 28 as previously reported by Cataldo and al in Am. J. Pathol 2002; 161(2):491-498.
(§2) After BAL, the thorax was opened and the left main bronchus was clamped. The left lung was excised and frozen immediately at −80° C. for protein and mRNA extraction. The right lung was infused with 4 ml paraformaldehyde 4%, embedded in paraffin and used for histology. Sections of 5 μm thickness were cut off from paraffin and were stained with haematoxylin-eosin. The extent of peribronchial inflammation was estimated by a score calculated by quantification of peribronchial inflammatory cells, as previously described by Cataldo D D, Tournoy K G, Vermaelen K et al. in Am J Pathol 2002; 161(2):491-498. A value of 0 was adjudged when no inflammation was detectable, a value of 1 when there was occasionally inflammatory cells, a value of 2 when most bronchi were surrounded by a thin layer (1 to 5 cells) of inflammatory cells and a value of 3 when most bronchi were surrounded by a thick layer (>5 cells) of inflammatory cells. Since 5-7 randomly selected tissue sections per mouse were scored, inflammation scores are expressed as a mean value and can be compared between groups. After Congo Red staining, the eosinophilic infiltration in the airway walls was quantified by manual count and reported to the perimeter of epithelial basement membrane defining an eosinophilic inflammatory score.

OVA exposed mice [2] = assay: Bronchial responsiveness to methacholine (Penh, barometric plethysmograph); format: in vivo, mouse; details: FIG. 10
Experimental: as §1
Twenty-four hours after the last allergen exposure, the bronchial hyper responsiveness was determined by measuring the Penh (Enhanced Pause) using a barometric plethysmograph (Emka technologies, Paris) as proposed by Hamelmann, E., et al., Am. J. Respir. Crit. Care Med. 156 (1997) 766-775). The Penh was measured at baseline and […] after the inhalation of increasing doses (25, 50, 75 and 100 mM) of methacholine (Mch).

OVA exposed mice [3] = assay: Bronchoalveolar lavage differential cell counts, OVA mouse model of asthma; format: in vivo; details: for Eosinophils (%) in BAL / Epithelial cells (%) in BAL / Lymphocytes (%) in BAL / Macrophages (%) in BAL / Neutrophils (%) in BAL / Total cells (10^4/ml) in BAL: Table 2
Experimental: (§3) In order to study modulation of airway inflammation, males BALB/c mice of 6 to 8 weeks old were sensitized by intraperitoneal injection of 10 μg ovalbumin (OVA) (Sigma Aldrich, Schnelldorf, Germany) emulsified in aluminum hydroxyde (AlumInject; Perbio, Erembodegem, Belgium) on days 1 and 8. Mice were subsequently exposed to allergens by daily inhalation of an aerosol of OVA 1%, for 30 minutes, generated by ultrasonic nebulizer (Devilbiss 2000), from day 21 to 27. Mice were subjected to inhalation of β-CD, HP-β-CD HP 1, 7.5, 50 mM and HP-β-CD 50 mM 30 minutes before OVA inhalation. Mice were sacrificed performed on day 28 as previously reported by Cataldo and al in Am. J. Pathol 2002; 161(2):491-498.
Immediately after assessment of airway responsiveness, and 24 hours after the last allergen exposure.
(§4) Mices were sacrificed and a bronchoalveolar lavage was performed using 4×1 ml PBS-EDTA 0.05 mM (Calbiochem, Darmstadt, Germany) as previously described by Cataldo D D, Tournoy K G, Vermaelen K et al. in Am J Pathol 2002; 161(2):491-498. Cells were recovered by gentle manual aspiration. After centrifugation of bronchoalveolar fluid (BALF) (1200 rpm for 10 minutes, at 4° C.), the supernatant was frozen at −80° C. for protein assessment and the cell pellet was resuspended in 1 ml PBS-EDTA 0.05 mM. The differential cell counts were performed on cytocentrifuged preparations (Cytospin) after staining with Diff-Quick (Dade, Belgium).

IL-13 = IL-13 ELISA in BAL and lung protein extracts, OVA mouse model; format: in vivo
Experimental: as §3
The left lung was crushed using a Mikro-Dismembrator (Braun Biotech International, Gmbh Melsungen, Germany). For proteins extraction, the crushed lung tissue was incubated overnight at 4° C. in a solution containing 2M urea, 1M NaCl and 50 mM Tris (pH 7.5) and subsequently centrifuged 15 minutes at 16.000×g. The supernatant was stored at −80° C.
Eotaxin and IL-13 levels were assessed using commercial ELISAs (R&D systems, Abingdon, UK). Eotaxin was measured by incubation in a wheel coated with a primary antibody specifically dedicated to the recognition of the protein and after rinsing, a second antibody against eotaxin, coupled with horse radish peroxydase was used to quantify the amounts of eotaxin in the solution
IL-13 was measured by incubation in a wheel coated with a primary antibody specifically dedicated to the recognition of the protein and after rinsing, a second antibody against IL-13, coupled with horse radish peroxydase was used to quantify the amounts of […] in the solution.

mice = assay: BAL differential cell counts after exposure to inhaled CRYSMEB (Table 1); format: in vivo, mouse
Experimental: as §4, with “Belgium). […]” for “Belgium).”

OVA exposed mice [4] = assay: Peribronchial eosinophil infiltration (Congo Red), OVA mouse model; format: in vivo; details: after allergen exposure; FIG. 3
Experimental: as §3, §2

[5] = exposure to aerosolized CRYSMEB 30 min/day during 7 days
[6] = reference therapy, concentration not given

cellular composition of the bronchoalveolar lavage (mice; [5]): not significantly altered
eosinophil and neutrophil counts in BAL (mice; [5]): no differences
Eosinophils (%) in BAL (mice; inhaled 20 mM): 0.0375 ± 0.0375%
Epithelial cells (%) in BAL (mice; inhaled 20 mM): 29.9 ± 5.909%
Lymphocytes (%) in BAL (mice; inhaled 20 mM): 0.425 ± 0.1485%
Macrophages (%) in BAL (mice; inhaled 20 mM): 69.5 ± 5.956%
Neutrophils (%) in BAL (mice; inhaled 20 mM): 0.0375 ± 0.1061%
Eosinophils (%) in BAL (mice; inhaled 50 mM): 0.1125 ± 0.0789%
Epithelial cells (%) in BAL (mice; inhaled 50 mM): 36.1375 ± 4.52%
Lymphocytes (%) in BAL (mice; inhaled 50 mM): 0.275 ± 0.1161%
Macrophages (%) in BAL (mice; inhaled 50 mM): 63.1625 ± 4.695%
Neutrophils (%) in BAL (mice; inhaled 50 mM): 0.2 ± 0.3505%
Eosinophils (%) in BAL (mice; inhaled 75 mM): 0.0375 ± 0.0375%
Epithelial cells (%) in BAL (mice; inhaled 75 mM): 30.8875 ± 1.349%
Lymphocytes (%) in BAL (mice; inhaled 75 mM): 0.075 ± 0.0491%
Macrophages (%) in BAL (mice; inhaled 75 mM): 68.9 ± 1.334%
Neutrophils (%) in BAL (mice; inhaled 75 mM): 0.0375 ± 0.1061%
Compound: 2-O-methyl βcyclodextrin [CRYSMEB]
peribronchial inflammation score (OVA exposed mice [1]; 20 mM, compared to placebo, FIG. 9A): decreased inflammation score
methacholine-induced Penh increase (OVA exposed mice [2]; 10 mM inhalation): reduced
responsiveness to methacholine (OVA exposed mice [2]; after allergen exposure, extent comparable to fluticasone): significantly reduced
Bronchoalveolar lavage eosinophilia (OVA exposed mice [3]; Example 2, treated groups vs placebo): significantly decreased
Eosinophils (%) in BAL (OVA exposed mice [3]; 10 mM): 8.84 ± 2.946 %
Epithelial cells (%) in BAL (OVA exposed mice [3]; 10 mM): 36.83 ± 5.644%
Lymphocytes (%) in BAL (OVA exposed mice [3]; 10 mM): 0.214 ± 0.1079%
Macrophages (%) in BAL (OVA exposed mice [3]; 10 mM): 52.714 ± 6.49%
Neutrophils (%) in BAL (OVA exposed mice [3]; 10 mM): 1.26 ± 0.4587%
Total cells (10^4/ml) in BAL (OVA exposed mice [3]; 10 mM): 131.93 ± 33.637 10^4/ml
levels of IL-13 in whole lung protein extracts (IL-13; FIG. 11): significantly decreased

Compound: C[C@@H]1C[C@H]2[C@@H]3C[C@H](F)C4=CC(=O)C=C[C@]4(C)[C@@]3(F)[C@@H](O)C[C@]2(C)[C@@]1(O)C(=O)SCF [Fluticasone, reference compound]
Eosinophils (%) in BAL (OVA exposed mice [3]; [6]): 32.92 ± 7.306 %
Epithelial cells (%) in BAL (OVA exposed mice [3]; [6]): 22.85 ± 5.343%
Lymphocytes (%) in BAL (OVA exposed mice [3]; [6]): 1.68 ± 0.7115%
Macrophages (%) in BAL (OVA exposed mice [3]; [6]): 40.52 ± 3.122%
Neutrophils (%) in BAL (OVA exposed mice [3]; [6]): 1.85 ± 1.093%
Total cells (10^4/ml) in BAL (OVA exposed mice [3]; [6]): 75.92 ± 11.922 10^4/ml

Compound: OC[C@H]1O[C@@H]2O[C@H]3[C@H](O)[C@@H](O)[C@@H](O[C@H]4[C@H](O)[C@@H](O)[C@@H](O[C@H]5[C@H](O)[C@@H](O)[C@@H](O[C@H]6[C@H](O)[C@@H](O)[C@@H](O[C@H]7[C@H](O)[C@@H](O)[C@@H](O[C@H]8[C@H](O)[C@@H](O)[C@@H](O[C@H]1[C@H](O)[C@H]2O)O[C@@H]8CO)O[C@@H]7CO)O[C@@H]6CO)O[C@@H]5CO)O[C@@H]4CO)O[C@@H]3CO [β-CD, β-cyclodextrin]
peribronchial inflammation score (OVA exposed mice [1]; concentration not given, FIG. 2): did not reduce
peribronchial eosinophil infiltration (OVA exposed mice [4]): decrease reached statistical significance
number of eosinophils in BAL (OVA exposed mice [3]; after allergen exposure, concentration not given, FIG. 1): tendency to increase
IL-13 levels in BAL (IL-13; FIG. 7b): increased
